The target in one assay is T1, human MAGL (His-hMAGL) (Homo sapiens, UniProt Q99685).
T1 construct: made in house; host or cells: Escherichia coli BL21(DE3)
T1 sequence (Q99685 1-303): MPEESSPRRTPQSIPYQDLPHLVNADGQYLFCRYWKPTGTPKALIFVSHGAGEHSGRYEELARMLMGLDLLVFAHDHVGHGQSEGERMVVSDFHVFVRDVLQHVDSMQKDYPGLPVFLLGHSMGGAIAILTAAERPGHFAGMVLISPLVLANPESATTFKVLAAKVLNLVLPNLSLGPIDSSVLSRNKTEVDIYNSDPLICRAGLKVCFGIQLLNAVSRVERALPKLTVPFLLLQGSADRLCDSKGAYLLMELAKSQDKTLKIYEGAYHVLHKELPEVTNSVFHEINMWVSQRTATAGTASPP
Kind of assay: Measurement of MAGL inhibitory activity by absorbance. The note with it: 10 μM test compound; substrate p-nitrophenyl acetate, absorbance at 405 nm. The assay is classed as biochemical. From the text:
(1) Cloning of Human MGLL Encoding MAGL Protein and Construction of Expression Plasmid
Human MGLL cDNA was obtained by PCR using human ORF Clone (DNAForm; Clone ID: 100004585) as a template. For PCR, two kinds of primers: […]
The obtained PCR product was digested with Bam HI and Not I (Takara Bio Inc.), inserted into the Bam HI/Not I site of pET21HH(V) (pET21a (Novagen) inserted with His x6 and TEV Protease recognition sequence) by using Ligation High (Toyobo Co., Ltd.), and introduced into ECOS™ JM109 (Nippon Gene Co., Ltd.), whereby expression plasmid pET21HH(V)/His-hMGLLv2 for Escherichia coli was constructed. (2) Preparation of Recombinant Polyhistidine Tagged Human MAGL Protein
Recombinant His-hMAGL protein was prepared by transforming ECOS™ Competent E. coli BL21(DE3) (Nippon Gene Co., Ltd.) with the pET21HH(V)/His-hMGLLv2 plasmid prepared above. Escherichia coli obtained by transformation was inoculated to 10 mL of LB medium (1% peptone, 0.5% yeast extract, 0.5% sodium chloride, 0.01% ampicillin), and cultured at 30° C. for 16 hr. […] When the turbidity of the culture medium reached about 500 Klett unit, the culture temperature was lowered to 16° C., isopropyl-β-D-thiogalactopyranoside (IPTG) was added to a final concentration of 1 mM, and the mixture was further cultured for 19 hr. After the completion of culture, the culture medium was centrifuged (4° C., 6,000 rpm, 10 min) to give His-hMAGL expression Escherichia coli. Then, His-hMAGL expression Escherichia coli was suspended in 50 mM Tris-HCl (pH 8.0, 100 ml) containing 1% Triton X-100, 20 mM imidazole, 3 mM DTT, 5 U/mL Benzonase (Merck) and 150 mM NaCl, sufficiently cooled, and subjected to sonication at […]=60%, 15 sec/ON, 30 sec/OFF for 3 min using ¾″ solid type crushed horn of BRANSON Digital Sonifier 450 (Central Scientific Commerce, Inc.). Furthermore, the homogenate was centrifuged (4° C., 15,000 rpm, 15 min) and the supernatant was obtained. As the purification apparatus, AKTA explorer 10s (GE Healthcare Japan Corporation) was used at 4° C. To the obtained supernatant was added 5M NaCl to the final salt concentration of 0.3 M, and the mixture was flown through and adsorbed to 5 mL of Ni-NTA Superflow Cartridges (QIAGEN) equilibrated in advance with buffer A (50 mM Tris-HCl (pH 8.0) containing 0.05% TritonX-100, 1 mM DTT, 300 mM NaCl). The column was sufficiently washed with buffer A containing 20 mM imidazole and His-hMAGL was eluted with buffer A containing imidazole at a final concentration of 250 mM. The eluate was further subjected to gel filtration using HiLoad 26/600 Superdex 200 pg (GE Healthcare Japan Corporation) equilibrated with 50 mM Tris-HCl pH 8.0 containing 10% glycerol, 0.05% TritonX-100, 1 mM DTT, 150 mM NaCl. The eluted fraction was concentrated by Amicon Ultra-15 10K (Merck Millipore) to give purified His-hMAGL protein. The protein concentration was measured by BCA Protein Assay Kit (Thermo Fisher Scientific) using BSA as the standard.
(3) Measurement of MAGL Inhibitory Activity
His-hMAGL obtained above was diluted with enzyme reaction buffer (10 mM Tris-HCl, pH 7.5, 1 mM EDTA, 0.1 (w/v) % Triton X-100) to a concentration of 60 ng/mL. […] Thereafter, to each well was added 750 μM p-nitrophenyl acetate (Wako Pure Chemical Industries, Ltd.) by 5 μL, and the absorbance at 405 nm was measured every 2 minutes up to 10 minutes by EnVision (PerkinElmer). The amount of change was obtained by subtracting the absorbance measured immediately after the start of the reaction from the absorbance measured 10 min after the start of the reaction.
MAGL inhibitory rate (%) was calculated according to the following calculation formula. (1−(absorbance change amount of test compound addition group−absorbance change amount of enzyme addition-free group)[…](absorbance change amount of test compound addition-free group−absorbance change amount of enzyme addition-free group))×100
In general, inhibition refers to how much of the control response was suppressed. A lower inhibition goes with a response near the control. `O=C(c1nccs1)N1CCN([C@@H]2CC(=O)N(c3ccc4c(ccn4-c4ncc(C(F)(F)F)cn4)c3)C2)CC1` [Example 80, (4R)-4-(4-(1,3-Thiazol-2-ylcarbonyl)piperazin-1-yl)-1-(1-(5-(trifluoromethyl)pyrimidin-2-yl)-1H-indol-5-yl)pyrrolidin-2-one] came in with an inhibition at 10 µM of 100%.

In the case of `O=C(c1nccs1)N1CCN(C2CC(=O)N(c3cccc4ccccc34)C2)CC1` (stereo not drawn) [Example 70, 1-(1-naphthyl)-4-(4-(1,3-thiazol-2-ylcarbonyl)piperazin-1-yl)pyrrolidin-2-one], testing at 10 µM gave an inhibition of 91%.

In the case of `O=C(c1nccs1)N1CCN(C2CC(=O)N(c3ccc(C4CC4)cc3)C2)CC1` (stereo not drawn) [Example 57, 1-(4-Cyclopropylphenyl)-4-(4-(1,3-thiazol-2-ylcarbonyl)piperazin-1-yl)pyrrolidin-2-one], the inhibition at 10 µM turned out to be 90%.

`O=C(c1nccs1)N1CCN(C2CC(=O)N(c3ccc4c(cnn4-c4ccc(F)cc4)c3)C2)CC1` (stereo not drawn) [Example 85, 1-(1-(4-Fluorophenyl)-1H-indazol-5-yl)-4-(4-(1,3-thiazol-2-ylcarbonyl)piperazin-1-yl)pyrrolidin-2-one] returned an inhibition at 10 µM of 99%.

`O=C(c1cocn1)N1CCN(C2CC(=O)N(c3ccc(Oc4ccccc4)cc3)C2)CC1` (stereo not drawn) [Example 36, 4-(4-(1,3-oxazol-4-ylcarbonyl)piperazin-1-yl)-1-(4-phenoxyphenyl)pyrrolidin-2-one] displayed an inhibition at 10 µM of 95%. `O=C(c1ccc(Cl)o1)N1CCN(C2CC(=O)N(c3ccc(Oc4ccccc4)cc3)C2)CC1` (stereo not drawn) [Example 8, 4-(4-(5-chloro-2-furoyl)piperazin-1-yl)-1-(4-phenoxyphenyl)pyrrolidin-2-one] returned an inhibition at 10 µM of 93%. In the case of `COc1cccc(Oc2ccc(N3CC(N4CCN(C(=O)c5nccs5)CC4)CC3=O)cc2)c1` (stereo not drawn) [Example 44, 1-(4-(3-methoxyphenoxy)phenyl)-4-(4-(1,3-thiazol-2-ylcarbonyl)piperazin-1-yl)pyrrolidin-2-one], the inhibition at 10 µM was found to be 97%. Still for that read-out and setting: the same measure for `O=C(c1nccs1)N1CCN(C2CC(=O)N(c3ccc(Oc4ccc(F)c(F)c4)cc3)C2)CC1` (stereo not drawn) [Example 12, 1-(4-(3,4-difluorophenoxy)phenyl)-4-(4-(1,3-thiazol-2-ylcarbonyl)piperazin-1-yl)pyrrolidin-2-one]: 98%; for `O=C(c1nccs1)N1CCN(C2CC(=O)N(c3cccc(Oc4ccc(F)cc4)c3)C2)CC1` (stereo not drawn) [Example 79, 1-(3-(4-Fluorophenoxy)phenyl)-4-(4-(1,3-thiazol-2-ylcarbonyl)piperazin-1-yl)pyrrolidin-2-one]: 95%.

Consider `COc1ccc(Oc2ccc(N3CC(N4CCN(C(=O)c5nccs5)CC4)CC3=O)cc2)cc1` (stereo not drawn) [Example 22, 1-(4-(4-methoxyphenoxy)phenyl)-4-(4-(1,3-thiazol-2-ylcarbonyl)piperazin-1-yl)pyrrolidin-2-one], for which the inhibition at 10 µM came out at 97%. As for `O=C(c1nccs1)N1CCN(C2CC(=O)N(c3ccc4c(ccn4-c4ccc(Cl)cn4)c3)C2)CC1` (stereo not drawn) [Example 87, 1-(1-(5-chloropyridin-2-yl)-1H-indol-5-yl)-4-(4-(1,3-thiazol-2-ylcarbonyl)piperazin-1-yl)pyrrolidin-2-one], testing at 10 µM gave an inhibition of 98%. On the same count and under the same terms, the result for `O=C(N1CCCC1)N1CCN(C2CC(=O)N(c3ccc(Oc4ccccc4)cc3)C2)CC1` (stereo not drawn) [Example 21, 1-(4-Phenoxyphenyl)-4-(4-(pyrrolidin-1-ylcarbonyl)piperazin-1-yl)pyrrolidin-2-one] reads 69%. Same read-out and setting: the same measure for `COc1ccccc1Oc1ccc(N2CC(N3CCN(C(=O)c4nccs4)CC3)CC2=O)cc1` (stereo not drawn) [Example 45, 1-(4-(2-methoxyphenoxy)phenyl)-4-(4-(1,3-thiazol-2-ylcarbonyl)piperazin-1-yl)pyrrolidin-2-one]: 97%. The same measure, in the same setting: the result for `N#Cc1cccnc1N1CCN(C2CC(=O)N(c3ccc(Oc4ccccc4)cc3)C2)CC1` (stereo not drawn) [Example 7, 2-(4-(5-Oxo-1-(4-phenoxyphenyl)pyrrolidin-3-yl)piperazin-1-yl)nicotinonitrile] reads 87%. Turning to `COc1cc(Oc2ccccc2)ccc1N1CC(N2CCN(C(=O)c3nccs3)CC2)CC1=O` (stereo not drawn) [Example 13, 1-(2-Methoxy-4-phenoxyphenyl)-4-(4-(1,3-thiazol-2-ylcarbonyl)piperazin-1-yl)pyrrolidin-2-one], the inhibition at 10 µM is 98%.

`O=C(c1nccs1)N1CCN(C2CC(=O)N(c3ccc4c(ccn4-c4ncc(Cl)cn4)c3)C2)CC1` (stereo not drawn) [Example 84, 1-(1-(5-chloropyrirnidin-2-yl)-1H-indol-5-yl)-4-(4-(1,3-thiazol-2-ylcarbonyl)piperazin-1-yl)pyrrolidin-2-one] gave an inhibition at 10 µM of 96%.

Staying with this assay, now noted: 10 μM test compound; substrate p-nitrophenyl acetate, absorbance at 405 nm; 10 µM.
The term Inhibition denotes how much of the control response was suppressed. On to `O=C(c1nccs1)N1CCN(C2CC(=O)N(c3ccc4c(ccn4-c4ccc(F)cc4)c3)C2)CC1` (stereo not drawn) [Example 23, 1-(1-(4-Fluorophenyl)-1H-indol-5-yl)-4-(4-(1,3-thiazol-2-ylcarbonyl)piperazin-1-yl)pyrrolidin-2-one (optical isomer)], for which the “Inhibition at 10 μM (%)” value is recorded as 99%.

For the next assay, the target named is T1, human MAGL (His-hMAGL). Kind of assay: Measurement of MAGL inhibitory activity by mass spectrometry. It counts as biochemical. The conditions noted are these: 10 μM test compound; substrate 2-arachidonylglycerol, arachidonic acid by RapidFire-mass spectrometry. Put shortly: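 His-tagged human MAGL was reacted with 150 μM 2-arachidonylglycerol substrate (stock, added by 5 μL) for 10 min at room temperature, then stopped with formic acid. Arachidonic acid product was quantified by RapidFire–triple-quadrupole MS in negative SRM mode, corrected by arachidonic acid-d8, and converted to percent inhibition.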
`O=C(c1nccs1)N1CCN([C@@H]2CC(=O)N(c3ccc4c(ccn4-c4ncc(C(F)(F)F)cn4)c3)C2)CC1` [Example 80, (4R)-4-(4-(1,3-Thiazol-2-ylcarbonyl)piperazin-1-yl)-1-(1-(5-(trifluoromethyl)pyrimidin-2-yl)-1H-indol-5-yl)pyrrolidin-2-one]: at 10 µM the inhibition was 97%.

In another assay the test system is Gfap, IL-1β, IL-6 gene expression in hippocampus. Kind of assay: Measurement of gene expression in hippocampus of kainic acid intraventricular administration rat. The conditions noted are these: SD rats, 30 mg/kg by gavage, hippocampus 24 hr after administration. It counts as in vivo.
As to `O=C(c1nccs1)N1CCN([C@@H]2CC(=O)N(c3ccc4c(ccn4-c4ncc(C(F)(F)F)cn4)c3)C2)CC1` [compound 1, (4R)-4-(4-(1,3-thiazol-2-ylcarbonyl)piperazin-1-yl)-1-(1-(5-(trifluoromethyl)pyrimidin-2-yl)-1H-indol-5-yl)pyrrolidin-2-one], the “effect to decrease expression of a gene of glial fibrillary acidic protein (GFAP) (FIG. 3)” value was “decrease expression”, the “effect to decrease expression of a gene of interleukin 1β (IL-1β) (FIG. 4)” value was “decrease expression” and the “effect to decrease expression of a gene of interleukin 6 (IL-6) (FIG. 5)” value is given as “decrease expression”.
